Data published in ChEMBL document CHEMBL1250437, “Callyaerins A-F and H, new cytotoxic cyclic peptides from the Indonesian marine sponge Callyspongia aerizusa” (Bioorg Med Chem, 2010).

What was measured:
L5178Y = test: Cytotoxicity against mouse L5178Y cells; format: functional; details: read-out: ED50 (the source's name)
HeLa = test: Cytotoxicity against human HeLa cells; format: functional; details: read-out: ED50 (the source's name)
PC-12 = test: Cytotoxicity against rat PC12 cells; format: functional; details: read-out: ED50 (the source's name)
[1] = Toxicity in brine shrimp assessed as mortality at 20 ug/ml; format: organism-based; details: artemia, in vivo; read-out: Activity
[2] = Toxicity in brine shrimp assessed as mortality at 50 ug/ml; format: organism-based; details: artemia, in vivo; read-out: Activity
Staphylococcus aureus = test: Antimicrobial activity against Staphylococcus aureus at 5 to 10 uL; format: functional
Bacillus subtilis = test: Antimicrobial activity against Bacillus subtilis at 5 to 10 uL; format: functional
Escherichia coli = test: Antimicrobial activity against Escherichia coli at 5 to 10 uL; format: functional
Candida albicans = test: Antimicrobial activity against Candida albicans at 5 to 10 uL; format: functional

Compound	EC50 (L5178Y) [µM]	EC50 (HeLa) [µM]	EC50 (PC-12) [µM]	mortality at 20 ug/ml [1] [%]	mortality at 50 ug/ml [2] [%]	inhibition zone (IZ) (Staphylococcus aureus) [mm]	inhibition zone (IZ) (Bacillus subtilis) [mm]	inhibition zone (IZ) (Escherichia coli) [mm]	inhibition zone (IZ) (Candida albicans) [mm]
CC[C@H](C)[C@H](NC(=O)[C@@H](NC(=O)[C@@H]1CCCN1C(=O)/C1=C/N[C@@H](CC(C)C)C(=O)N2CCC[C@H]2C(=O)N[C@@H](Cc2ccccc2)C(=O)N[C@@H](Cc2ccccc2)C(=O)N2CCC[C@H]2C(=O)N2CCC[C@H]2C(=O)N[C@@H](C(C)C)C(=O)N1)[C@@H](C)CC)C(=O)NCC(=O)O [CALLYAERIN E]	0.39	3.4	3.8	45	70	9	15	9	20
CC[C@@H](C)[C@@H]1NC(=O)[C@H](C(C)C)NC(=O)[C@@H]2C[C@@H](O)CN2C(=O)[C@H]([C@@H](C)CC)N/C=C(\C(=O)N2CCC[C@H]2C(=O)N[C@H](C(=O)N[C@@H](Cc2ccccc2)C(=O)NCC(N)=O)[C@@H](C)CC)NC(=O)[C@H](CC(C)C)NC(=O)[C@@H]2CCCN2C(=O)[C@@H]2CCCN2C(=O)[C@H](CC(C)C)NC1=O [CALLYAERIN A]	3.61	–	–	–	–	9	0	10	25
CC[C@H](C)[C@H](NC(=O)[C@H](Cc1ccccc1)NC(=O)[C@H](CC(C)C)NC(=O)[C@@H]1CCCN1C(=O)/C1=C\N[C@@H](C(C)C)C(=O)N2CCC[C@H]2C(=O)N[C@@H](C(C)C)C(=O)N[C@@H](Cc2ccccc2)C(=O)N2CCC[C@H]2C(=O)N1)C(=O)O [CALLYAERIN F]	> 9	> 9	> 9	–	–	0	0	0	0
CC(C)C[C@@H]1NC(=O)[C@@H]2CCCN2C(=O)[C@H]2CCCN2C(=O)[C@@H]2CCCN2C(=O)[C@@H]2CCCN2C(=O)[C@H](CC(C)C)N/C=C(\C(=O)N2CCC[C@H]2C(=O)N[C@@H](Cc2ccccc2)C(=O)N[C@@H](Cc2ccccc2)C(=O)N[C@@H](Cc2ccccc2)C(=O)O)NC1=O [CALLYAERIN G]	0.41	4.43	> 8	–	–	–	–	–	–
CC[C@H](C)[C@H](NC(=O)[C@@H]1CCCN1C(=O)/C1=C\N[C@@H](C(C)C)C(=O)N2CCC[C@H]2C(=O)N[C@@H](C(C)C)C(=O)N[C@@H](Cc2ccccc2)C(=O)N2CCC[C@H]2C(=O)N2CCC[C@H]2C(=O)N[C@@H](CC(C)C)C(=O)N1)C(=O)O [CALLYEARIN H]	0.48	–	–	30	55	–	–	–	–
CC[C@@H](C)[C@@H]1NC(=O)[C@H]([C@@H](C)CC)NC(=O)[C@@H]2C[C@@H](O)CN2C(=O)[C@H]([C@H](C)CC)N/C=C(\C(=O)N2CCC[C@H]2C(=O)N[C@H](C(=O)N[C@H](C(=O)O)[C@@H](C)CC)[C@@H](C)CC)NC(=O)[C@H](CC(C)C)NC(=O)[C@@H]2CCCN2C(=O)[C@@H]2CCCN2C(=O)[C@H](CC(C)C)NC1=O [CALLYAERIN B]	4.14	> 8	> 8	15	35	11	0	7	15
CC[C@@H]1NC(=O)[C@@H]2C[C@@H](O)CN2C(=O)[C@@H]2CCCN2C(=O)[C@H](Cc2ccccc2)NC(=O)[C@H]([C@H](C)CC)NC(=O)[C@H]([C@H](C)CC)N/C=C(\C(=O)N2CCC[C@H]2C(=O)N[C@H](C(=O)N[C@@H](CC(N)=O)C(=O)N[C@@H](C)C(=O)N[C@H](C(=O)O)[C@@H](C)CC)[C@@H](C)CC)NC(=O)[C@H](CC(C)C)NC1=O [CALLYAERIN D]	3.03	–	–	–	–	0	12	0	0
